Reference: patent publication US20080159962A1, “Use of Inhibitors of the Renin-Angiotensin System for the Treatment of Lung Injuries” (priority 2005, published 2008)
Like-named read-outs stand apart in the source and are kept apart here.

Columns and labels:
Format in all cases: in vivo
[1] = target: T1, BK2 (Mus musculus, UniProt P32299); experiment: Bradykinin receptor inhibitor study (BK2) in acid aspiration-induced ALI of ace2 KO mice; conditions: acid-treated ace2 KO mice, 1.5 mg/kg i.p. 30 min before surgical procedures, 3 hrs (FIG. 17)
T1 construct: from tissue; host or cells: live ace2 KO mice, lung elastance read-out
T1 sequence (P32299 1-392): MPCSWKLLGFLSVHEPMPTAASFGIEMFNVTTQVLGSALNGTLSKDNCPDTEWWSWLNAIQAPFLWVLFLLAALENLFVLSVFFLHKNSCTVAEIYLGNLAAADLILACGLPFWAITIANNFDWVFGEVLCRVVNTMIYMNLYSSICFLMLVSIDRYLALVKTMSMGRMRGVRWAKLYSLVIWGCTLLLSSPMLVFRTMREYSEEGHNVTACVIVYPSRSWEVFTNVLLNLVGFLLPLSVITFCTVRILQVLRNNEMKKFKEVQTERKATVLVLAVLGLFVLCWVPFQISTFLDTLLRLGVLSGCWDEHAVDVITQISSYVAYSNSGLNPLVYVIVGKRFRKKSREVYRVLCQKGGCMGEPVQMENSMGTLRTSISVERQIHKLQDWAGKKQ
Procedure: (§1) Murine acid aspiration-induced lung injury model: For acid aspiration-induced ALI, 2.5-3 month old mice were anaesthetized with ketamin (75 mg/kg) and xylazine (20 mg/kg) i.p., tracheostomized and ventilated with a volume control constant flow ventilator (Voltek Enterprises). Volume recruitment manoeuvre (VRM) (25 cmH2O, 3 sec) was performed to standardize volume history and measurements were made as baseline. After intratracheal instillation of HCl (pH=1.5; 2 ml/kg), followed by a VRM (35 cmH2O, 3 seconds), animals were ventilated for 3 hrs (FIO2 1.0). Total PEEP (PEEPt) and plateau pressure (Pplat) were measured at the end of expiratory and inspiratory occlusion, respectively, and elastance was calculated as Pplat minus PEEPt)/VT every 30 minutes during the ventilation periods.
Bradykinin receptors inhibitor studies: Ace2 KO mice (2.5-3 months old) received the BK1 inhibitor (des Arg HOE, Sigma, 1.5 mg/kg), the BK2 inhibitor (HOE 140, Sigma, 1.5 mg/kg), or control vehicle i.p. 30 min before surgical procedures. After HCl instillation, animals were randomized into groups: (1) ace2 KO, acid, vehicle control; (2) ace2 KO, acid, BK1 inhibitor; (3) ace2 KO, acid, BK2 inhibitor. Animals were then ventilated for 3 hrs and analyzed as above.

[2] = target: T2, AT1R (Mus musculus, UniProt P29754)
[3] = target: T2, AT1R; experiment: AT1R inhibitor study in acid-induced ALI of ace2 KO mice; conditions: acid-treated ace2 KO mice
Procedure: as §1, with “Experimental murine ALI models:” for “Murine acid aspiration-induced lung injury model:”, “Enterprises, Canada).” for “Enterprises).”, “Saline-treated groups served as controls. […] All animals were monitored throughout an 18-hrs recovery period. […] In all experimental ALI models, total” for “Total”, “periods. […]” for “periods.”
Assessment of blood oxygenation, pulmonary oedema, and pulmonary vascular permeability: At the end of the experiments, blood samples were obtained from the left heart ventricle and PaO2 was measured (Ciba-Corning Model 248, Bayer, Leverkusen, Germany) to assess arterial blood oxygenation as an indicator for respiratory failure. To assess pulmonary oedemas, the lung wet/dry weight ratios were calculated. […]

[4] = target: T3, AT2R (Mus musculus, UniProt P35374); experiment: AT2R inhibitor study in acid-induced ALI of ace2 KO mice; conditions: acid-treated ace2 KO mice, 15 mg/kg i.p., 3 hrs (FIG. 10b)
T3 construct: from tissue; host or cells: live ace2 KO mice, lung elastance read-out
T3 sequence (P35374 1-363): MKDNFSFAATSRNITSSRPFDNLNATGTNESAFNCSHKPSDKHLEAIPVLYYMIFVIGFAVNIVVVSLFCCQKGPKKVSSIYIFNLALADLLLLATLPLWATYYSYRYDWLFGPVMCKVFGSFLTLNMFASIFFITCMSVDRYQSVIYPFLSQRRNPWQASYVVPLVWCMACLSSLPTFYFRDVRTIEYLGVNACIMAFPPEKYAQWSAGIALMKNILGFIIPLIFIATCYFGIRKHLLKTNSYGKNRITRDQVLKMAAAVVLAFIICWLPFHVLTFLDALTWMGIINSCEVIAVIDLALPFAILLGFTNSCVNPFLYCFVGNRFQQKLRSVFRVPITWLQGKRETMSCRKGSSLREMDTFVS
Procedure: as §1, with “Experimental murine ALI models:” for “Murine acid aspiration-induced lung injury model:”, “Enterprises, Canada).” for “Enterprises).”, “Saline-treated groups served as controls. […] All animals were monitored throughout an 18-hrs recovery period. […] In all experimental ALI models, total” for “Total”, “periods. […]” for “periods.”
AT1R/AT2R inhibitor studies: Mice (2.5-3 months old) received the AT1R inhibitor Losartan (15 mg/kg), the AT2R inhibitor PD123.319 (15 mg/kg), or control vehicle i.p. 30 min before surgical procedures. […] Animals were then ventilated for 3 hrs and analyzed as above.

T2 sequence (P29754 whole entry): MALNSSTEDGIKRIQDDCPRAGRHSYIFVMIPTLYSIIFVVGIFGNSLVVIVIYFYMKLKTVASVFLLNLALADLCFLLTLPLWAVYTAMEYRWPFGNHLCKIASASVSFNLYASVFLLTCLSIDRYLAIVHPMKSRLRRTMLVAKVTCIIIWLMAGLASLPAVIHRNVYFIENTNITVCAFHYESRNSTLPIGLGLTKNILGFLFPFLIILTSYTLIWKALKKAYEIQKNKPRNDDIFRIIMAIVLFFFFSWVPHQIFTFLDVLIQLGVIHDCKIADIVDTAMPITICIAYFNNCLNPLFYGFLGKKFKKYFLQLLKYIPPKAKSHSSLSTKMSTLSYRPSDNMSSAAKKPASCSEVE

NC(N)=NCCC[C@@H](N)C(=O)N[C@@H](CCCN=C(N)N)C(=O)N1CCC[C@H]1C(=O)N1C[C@H](O)C[C@H]1C(=O)NCC(=O)N[C@@H](Cc1cccs1)C(=O)N[C@@H](CO)C(=O)N1Cc2ccccc2C[C@@H]1C(=O)N1[C@H](C(=O)N[C@@H](CCCN=C(N)N)C(=O)O)C[C@@H]2CCCC[C@@H]21 [BK2 inhibitor, DArg[Hyp^3,Thi^5,DTic^7,Oic^8]-bradykinin]
lung failure assessed by pulmonary elastance [1]: improved the lung failure

CCCCc1nc(Cl)c(CO)n1Cc1ccc(-c2ccccc2-c2nn[nH]n2)cc1 [Losartan]
acute severe lung injury (lung elastance) ([2]; acid plus Spike-Fc challenged WT mice, 15 mg/kg (FIG. 5c)): attenuates SARS Spike-mediated severe acute lung injury | acute severe lung injury (lung elastance) ([2]; mouse, in vivo): attenuated acute severe lung injury | pulmonary oedema (wet to dry weight ratio) ([2]; mouse, in vivo): attenuated pulmonary oedema | severity of ALI (lung elastance) ([3]; 15 mg/kg i.p. 30 min before surgical procedures, 3 hrs (FIG. 10b)): attenuated the severity of ALI | acid-induced pulmonary oedema (wet to dry weight ratio) ([3]; 15 mg/kg, 3 hrs (FIG. 16b)): attenuated acid-induced pulmonary oedema

Cc1cc(Cn2cnc3c2C[C@@H](C(=O)O)N(C(=O)C(c2ccccc2)c2ccccc2)C3)ccc1N(C)C [PD123.319]
severe acute lung injury phenotypes (lung elastance) [4]: had no apparent effect
